In patent publication US12599582B2, “Pyrrole compounds” (ALIGOS THERAPEUTICS, INC., priority 2019, dated 2026):
pEC50: −log10 of the molar value.

These compounds were tested on HBV (assay: HBV-DNA Antiviral Assay Using HepG2.2.15 Cells (extracellular HBV DNA by qPCR)). Conditions: Hepatitis B virus; HBV DNA inhibition, HepG2.2.15 cells, extracellular HBV DNA by qPCR; read-out: EC50.
Assay type: cell-based, hepatitis B virus (HBV)
Procedure: The following assay procedure describes the HBV antiviral assay. This assay uses HepG2.2.15 cells, which have been transfected with HBV genome, and extracellular HBV DNA quantification as endpoint. Cell viability is assessed in parallel by measuring the intracellular ATP content using the CellTiter-Glo® reagent from Promega.
On day 0, HepG2.2.15 cells were seeded in 96-well plates at a density of 6.0×10^4 cells/well (0.1 mL/well). The cells were incubated at 37° C. and 5% CO2.
On day 1, the test articles were diluted and added to cell culture wells (8 concentrations, 4-fold dilution, in duplicate). GLS4, Tenofovir and Sorafenib were used as reference compounds. 100 μL of culture medium containing the compounds was added to the plate, and the final total volume per well was 200 μL. The final concentration of DMSO in the culture medium was 0.5%. The plate map of compound treatment is shown below. The cells were cultured at 37° C. and 5% CO2 for 3 days.
On day 4, the plates were refreshed with culture media with compounds.
On day 7, cell viability was assessed using the CellTiter-Glo®, and the cell culture supernatants were collected for determination of HBV DNA by qPCR.
Extracellular DNA was isolated with QIAamp 96 DNA Blood Kit per the manufacturer's manual. HBV DNA was then quantified by qPCR with HBV specific primers and probes as specified in Table 1 using the FastStart Universal MasterMix from Roche on an ABI-7900HT. The PCR cycle program consisted of 95° C. for 10 min, followed by 40 cycles at 95° C. for 15 sec and 60° C. for 1 min.
A DNA standard was prepared by dilution of the pAAV2 HBV1.3 plasmid with concentrations ranging from 10 to 1×10^7 copies/uL and used to generate a standard curve by plotting Ct value vs. the concentration of the HBV plasmid DNA standard. The quantity of HBV DNA in each sample was determined by interpolating from the standard curve.
Cell viability was calculated as follows: % Cell viability=(luminescence value of test sample−average luminescence value of blank)/(average luminescence value of 0.5% DMSO control−average luminescence of blank)×100%. HBV DNA inhibition was calculated as follows: 100−(HBV DNA copy number of test sample−HBV DNA copy number of ETV)/HBV DNA copy number of 0.5% DMSO control−HBV DNA copy number of ETV)×100%. The CC50, EC50 and EC90 values were determined by dose-response curves fitted by GraphPad Prism using “log (agonist) vs. response—Variable slope”.

| SMILES | pEC50 |
| --- | --- |
| C#C[C@@H](CO)NC(=O)C(=O)c1c(C)c(C(=O)Nc2ccc(F)c(C#N)c2)n(C)c1C (single isomer, unassigned) [Compound 31a] | 8.00 to 9.00 |
| C#C[C@H](CO)NC(=O)C(=O)c1c(C)c(C(=O)Nc2ccc(F)c(C#N)c2)n(C)c1C (single isomer, unassigned) [Compound 31b] | 8.00 to 9.00 |
| C#CCNC(=O)C(=O)c1c(C)c(C(=O)Nc2ccc(F)c(C(F)(F)F)c2)n(C)c1C [Compound 1, N-[4-fluoro-3-(trifluoromethyl)phenyl]-1,3,5-trimethyl-4-[2-oxo-2-(prop-2-ynylamino)acetyl]pyrrole-2-carboxamide] | 8.00 to 9.00 |
| C=CCNC(=O)C(=O)c1c(C)c(C(=O)Nc2ccc(F)c(C(F)(F)F)c2)n(C)c1C [Compound 2, 4-[2-(allylamino)-2-oxo-acetyl]-N-[4-fluoro-3-(trifluoromethyl)phenyl]-1,3,5-trimethyl-pyrrole-2-carboxamide] | 8.00 to 9.00 |
| C#CCNC(=O)C(=O)c1cc(C(=O)Nc2ccc(F)c(C#N)c2)n(C)c1 [Compound 3, N-(3-cyano-4-fluoro-phenyl)-1-methyl-4-[2-oxo-2-(prop-2-ynylamino)acetyl]pyrrole-2-carboxamide] | < 6.00 |
| C#CCNC(=O)C(=O)c1c(C)c(C(=O)Nc2ccnc(Br)c2F)n(C)c1C [Compound 4, N-(2-bromo-3-fluoro-4-pyridyl)-1,3,5-trimethyl-4-[2-oxo-2-(prop-2-ynylamino)acetyl]pyrrole-2-carboxamide] | 8.00 to 9.00 |
| C=CCNC(=O)C(=O)c1c(C)c(C(=O)Nc2ccnc(Br)c2F)n(C)c1C [Compound 5, 4-[2-(allylamino)-2-oxo-acetyl]-N-(2-bromo-3-fluoro-4-pyridy1)-1,3,5-trimethyl-pyrrole-2-carboxamide] | 7.00 to 8.00 |
| C#CCNC(=O)C(=O)c1cn(C)c(C(=O)Nc2ccc(F)c(C#N)c2)c1F [Compound 6, N-(3-cyano-4-fluoro-phenyl)-3-fluoro-1-methyl-4-[2-oxo-2-(prop-2-ynylamino)acetyl]pyrrole-2-carboxamide] | 6.00 to 7.00 |
| C=CCNC(=O)C(=O)c1cn(C)c(C(=O)Nc2ccc(F)c(C#N)c2)c1F [Compound 7, 4-[2-(allylamino)-2-oxo-acetyl]-N-(3-cyano-4-fluoro-phenyl)-3-fluoro-1-methyl-pyrrole-2-carboxamide] | 6.00 to 7.00 |
| C#CCNC(=O)C(=O)c1cn(C)c(C(=O)Nc2ccc(F)c(C#N)c2)c1C [Compound 8, N-(3-cyano-4-fluoro-phenyl)-1,3-dimethyl-4-[2-oxo-2-(prop-2-ynylamino)acetyl]pyrrole-2-carboxamide] | 7.00 to 8.00 |
| C#CCNC(=O)C(=O)c1c(C)c(C(=O)Nc2ccc(F)c(C#N)c2)n(C)c1Cl [Compound 9, 5-chloro-N-(3-cyano-4-fluoro-phenyl)-1,3-dimethyl-4-[2-oxo-2-(prop-2-ynylamino)acetyl]pyrrole-2-carboxamide] | 8.00 to 9.00 |
| C#CCNC(=O)C(=O)c1cn(C)c(C(=O)Nc2ccc(F)c(C#N)c2)c1Cl [Compound 10, 3-chloro-N-(3-cyano-4-fluoro-phenyl)-1-methyl-4-[2-oxo-2-(prop-2-ynylamino)acetyl]pyrrole-2-carboxamide] | 7.00 to 8.00 |
| C#CC(C)(C)NC(=O)C(=O)c1c(C)c(C(=O)Nc2ccc(F)c(C#N)c2)n(C)c1C [Compound 11, N-(3-cyano-4-fluoro-phenyl)-4-[2-(1,1-dimethylprop-2-ynylamino)-2-oxo-acetyl]-1,3,5-trimethyl-pyrrole-2-carboxamide] | > 9.00 |
| C#CCNC(=O)C(=O)c1c(F)c(C(=O)Nc2ccc(F)c(C#N)c2)n(C)c1Cl [Compound 12, 5-chloro-N-(3-cyano-4-fluoro-phenyl)-3-fluoro-1-methyl-4-[2-oxo-2-(prop-2-ynylamino)acetyl]pyrrole-2-carboxamide] | 6.00 to 7.00 |
| C#CCNC(=O)C(=O)c1c(F)c(C(=O)Nc2ccc(F)c(C#N)c2)n(C)c1C [Compound 13, N-(3-cyano-4-fluoro-phenyl)-3-fluoro-1,5-dimethyl-4-[2-oxo-2-(prop-2-ynylamino)acetyl]pyrrole-2-carboxamide] | 8.00 to 9.00 |
| C#CC1(NC(=O)C(=O)c2c(C)c(C(=O)Nc3ccc(F)c(C#N)c3)n(C)c2C)CC1 [Compound 14, N-(3-cyano-4-fluoro-phenyl)-4-[2-[(1-ethynylcyclopropyl)amino]-2-oxo-acetyl]-1,3,5-trimethyl-pyrrole-2-carboxamide] | > 9.00 |
| C#CC1(NC(=O)C(=O)c2c(C)c(C(=O)Nc3ccc(F)c(C#N)c3)n(C)c2C)CCC1 [Compound 15, N-(3-cyano-4-fluoro-phenyl)-4-[2-[(1-ethynylcyclobutyl)amino]-2-oxo-acetyl]-1,3,5-trimethyl-pyrrole-2-carboxamide] | > 9.00 |
| C#CCNC(=O)C(=O)c1c(Cl)c(C(=O)Nc2ccc(F)c(C#N)c2)n(C)c1Br [Compound 16, 5-bromo-3-chloro-N-(3-cyano-4-fluoro-phenyl)-1-methyl-4-[2-oxo-2-(prop-2-ynylamino)acetyl]pyrrole-2-carboxamide] | 7.00 to 8.00 |
| C#C[C@@H](C)NC(=O)C(=O)c1c(C)c(C(=O)Nc2ccc(F)c(C#N)c2)n(C)c1C [Compound 17a, N-(3-cyano-4-fluoro-phenyl)-1,3,5-trimethyl-4-[2-oxo-2-[[(1R)-1-methylprop-2-ynyl]amino]acetyl]pyrrole-2-carboxamide] | 8.00 to 9.00 |
| C#C[C@H](C)NC(=O)C(=O)c1c(C)c(C(=O)Nc2ccc(F)c(C#N)c2)n(C)c1C [Compound 17b, N-(3-cyano-4-fluoro-phenyl)-1,3,5-trimethyl-4-[2-oxo-2-[[(1S)-1-methylprop-2-ynyl]amino]acetyl]pyrrole-2-carboxamide] | 8.00 to 9.00 |
| C=CCNC(=O)C(=O)c1c(F)c(C(=O)Nc2ccc(F)c(C#N)c2)n(C)c1C [Compound 18, 4-[2-(allylamino)-2-oxo-acetyl]-N-(3-cyano-4-fluoro-phenyl)-3-fluoro-1,5-dimethyl-pyrrole-2-carboxamide] | 8.00 to 9.00 |
| Cc1c(C(=O)C(=O)NC2(c3c[nH]nn3)CC(F)(F)C2)c(C)n(C)c1C(=O)Nc1ccc(F)c(C#N)c1 [Compound 19, N-(3-cyano-4-fluoro-phenyl)-4-[2-[[3,3-difluoro-1-(1H-triazol-4-yl)cyclobutyl]amino]-2 oxo-acetyl]-1,3,5-trimethyl-pyrrole-2-carboxamide] | > 9.00 |
| C#CCNC(=O)C(=O)c1c(F)c(C(=O)Nc2ccc(F)c(C#N)c2)n(C)c1Br [Compound 20, 5-bromo-N-(3-cyano-4-fluoro-phenyl)-3-fluoro-1-methyl-4-[2-oxo-2-(prop-2-ynylamino)acetyl]pyrrole-2-carboxamide] | 7.00 to 8.00 |
| C#CCNC(=O)C(=O)c1c(Cl)c(C(=O)Nc2ccc(F)c(C#N)c2)n(C)c1C [Compound 21, 3-chloro-N-(3-cyano-4-fluoro-phenyl)-1,5-dimethyl-4-[2-oxo-2-(prop-2-ynylamino)acetyl]pyrrole-2-carboxamide] | 8.00 to 9.00 |
| Cc1c(C(=O)C(=O)NCC#CC2CC2)c(C)n(C)c1C(=O)Nc1ccc(F)c(C#N)c1 [Compound 22, N-(3-cyano-4-fluoro-phenyl)-4-[2-(3-cyclopropylprop-2-ynylamino)-2-oxo-acetyl]-1,3,5-trimethyl-pyrrole-2-carboxamide] | 8.00 to 9.00 |
| C#C[C@H](NC(=O)C(=O)c1c(C)c(C(=O)Nc2ccc(F)c(C#N)c2)n(C)c1C)C1CC1 [Compound 23a, N-(3-cyano-4-fluoro-phenyl)-1,3,5-trimethyl-4-[2-oxo-2-[[(1R)-1-cyclopropylprop-2-ynyl]amino]acetyl]pyrrole-2-carboxamide] | > 9.00 |
| C#C[C@@H](NC(=O)C(=O)c1c(C)c(C(=O)Nc2ccc(F)c(C#N)c2)n(C)c1C)C1CC1 [Compound 23b, N-(3-cyano-4-fluoro-phenyl)-1,3,5-trimethyl-4-[2-oxo-2-[[(1S)-1-cyclopropylprop-2-ynyl]amino]acetyl]pyrrole-2-carboxamide] | > 9.00 |
| C#CC1(NC(=O)C(=O)c2c(C)c(C(=O)Nc3ccc(F)c(C#N)c3)n(C)c2C)CC(F)(F)C1 [Compound 24, N-(3-cyano-4-fluoro-phenyl)-4-[2-[(1-ethynyl-3,3-difluoro-cyclobutyl)amino]-2-oxo-acetyl]-1,3,5-trimethyl-pyrrole-2-carboxamide] | > 9.00 |
| C#CCNC(=O)C(=O)c1cc(C(=O)Nc2ccc(F)c(C#N)c2)n(C)c1Cl [Compound 25, 5-chloro-N-(3-cyano-4-fluoro-phenyl)-1-methyl-4-[2-oxo-2-(prop-2-ynylamino)acetyl]pyrrole-2-carboxamide] | 6.00 to 7.00 |
